Experimental data published in publication PMC3071371, “Trypanosoma brucei Glycogen Synthase Kinase-3, A Target for Anti-Trypanosomal Drug Development: A Public-Private Partnership to Identify Novel Leads” (PLoS Neglected Tropical Diseases, 2011).
Entries after “also recorded” stand apart in the source; their conditions may differ.

Columns and labels:
[1] = Cytotoxicity against MRC-5 cell line, resazurin; format: cell-based, human; settings: human, MRC-5 fetal lung fibroblast cells; 72 hours incubation
Method: (§1) Compounds with TbruGSK-3 short IC50<100 nM were tested for their ability to inhibit the proliferation of T. brucei (blood stage form). Cytotoxicity testing against human fetal lung fibroblast MRC-5 cell line was also performed. Both assays were carried out with compound concentrations up to 64 µM at the Laboratory for Microbiology, Parasitology and Hygiene, University of Antwerp (www.ua.ac.be). Briefly, T. brucei trypomastigotes (Squib-427 strain, suramin-sensitive) were cultured in Hirumi-9 medium supplemented with 10% fetal calf serum at 1.5×10^4 trypomastigotes per well. Following 72 hours incubation, parasite growth was assessed fluorimetrically by addition of resazurin. For cytotoxicity evaluation, 10^4 MRC-5 cells/well were seeded onto the test plates containing the pre-diluted compounds and incubated at 37°C with 5% CO2 for 72 hours. Cell viability was determined fluorimetrically after addition of resazurin [24], [25]. Single point kinase panel screening was also conducted on selected compounds at 10 µM by Invitrogen (www.Invitrogen.com) and University of Dundee, UK (www.dundee.ac.uk).

[2] = molecular target: T1, TbruGSK-3 short (Trypanosoma brucei brucei, UniProt Q388M1); assay: TbruGSK-3 short Kinase-Glo luminescent ATP depletion assay; format: biochemical; settings: mean of at least 2 replicates; 2 µM ATP; read-out: Tbru GSK-3 short IC50
T1 construct: made in house
T1 sequence (Q388M1 1-352): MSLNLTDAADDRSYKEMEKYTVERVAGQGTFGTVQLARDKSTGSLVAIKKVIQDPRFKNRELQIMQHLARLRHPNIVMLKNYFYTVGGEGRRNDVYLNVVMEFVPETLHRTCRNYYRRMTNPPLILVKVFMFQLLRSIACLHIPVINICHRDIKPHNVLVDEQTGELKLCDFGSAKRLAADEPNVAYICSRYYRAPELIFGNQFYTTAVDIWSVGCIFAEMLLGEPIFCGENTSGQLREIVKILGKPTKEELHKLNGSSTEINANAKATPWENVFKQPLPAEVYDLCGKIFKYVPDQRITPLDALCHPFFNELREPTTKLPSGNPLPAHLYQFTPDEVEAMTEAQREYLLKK
Description: Recombinant TbruGSK-3 short (accession number Tb10.161.3140) was produced at the University of Washington and shipped to Pfizer, Sandwich, UK for testing. Kinase-Glo reagent (Promega) was used as previously described. This luciferase coupled assay, which provides a luminescent quantification of ATP […] during the kinase reaction, was modified to a 384-well plate screening format. A selected library of 16,540 compounds comprising known HsGSK-3 beta inhibitors and close structural analogues was screened at 10 µM final assay concentration. Assay plates were prepared by dispensing 0.2 µL of compound (dissolved in 100% DMSO) from master plates into white 384-well plates (Greiner bio one). Primary screening was conducted in a 20 µL reaction volume. Enzyme was added to each well to a final concentration of 3.8 nM in a volume of 10 µl using a Multidrop Combi dispenser (Thermo Scientific) and the plates were incubated for 15 minutes at room temperature (RT). Glycogen synthase peptide 2 (BioGSP2; Sigma) and ATP, were dissolved in 20% acetonitrile and 1 M Tris-HCl pH 7.6 respectively, then diluted in assay buffer to a final concentration of 3.2 µM BioGSP2 and 2 µM ATP. The assay buffer consisted of 25 mM Tris-HCl pH 7.5, 10 mM MgCl2, 5 mM DTT, 0.1 mg/mL BSA, 2 U/mL Heparin and 10 µM EDTA. The reaction was initiated by adding 10 µL of the substrate mixture to each well and allowed to proceed at RT for 2 h. Twenty microlitres of Kinase-Glo reagent was added to quench the reaction. Luminescence was measured after 1 h at a 100 millisecond/well integration time using the Acquest Multimode plate reader (Molecular Devices). Each plate included a positive control (4 µM GW8510, Sigma) and negative control (1% DMSO). […] The data was analysed using Pfizer SIGHTS software and visualised using Spotfire software (TIBCO). Five separate 384-well plates were screened in duplicate to assess the assay reproducibility.

[3] = molecular target: T2, HsGSK-3 beta (Homo sapiens, UniProt P49841); assay: Human GSK-3 beta inhibition (Pfizer data files or Omnia Kinase Assay); format: biochemical; settings: recovered from Pfizer data files or Omnia Kinase Assay, mean of at least 2 replicates
T2 construct: purchased Invitrogen
Method: Human GSK-3 beta inhibition data (IC50) for many of the compounds were recovered from Pfizer data files. If historical data were not available, the compounds were tested in an assay using 10 nM HsGSK-3 beta (Invitrogen) using Omnia Kinase Assay (Invitrogen) according to the manufacturer's instructions. The reaction volume was 20 µL and a range of compound concentrations were tested, up to a maximum of 40 µM. Briefly, 5 µl of HsGSK-3 beta was dispensed into black 384 assay plates (Greiner bio one) containing 0.2 µl of compounds. The enzyme was incubated with the compounds for 15 minutes at 30°C then 15 µl of substrate mixture was added to each well to commence the reaction. The substrate mixture consisted of 2 µL each of 2× kinase reaction buffer, 10 µM Omina peptide substrate, 0.2 mM DTT and 10 µM ATP, and 7 µL of ultra pure water. The reaction was allowed to proceed for 30 minutes at 30°C. Increase in fluorescence levels indicating peptide phosphorylation by the enzyme was monitored using an Envision (PerkinElmer) with λex 360/λem 485 nm and the data were analysed using Pfizer software SIGHTS and Spotfire (TIBCO).

[4] = system: T. brucei trypomastigotes (Squib-427 strain); assay: T. brucei blood stage proliferation, resazurin; format: cell-based; settings: Trypanosoma brucei; blood stage form, 72 hours incubation; read-out: Tbru parasite EC50
Method: as §1

[5] = system: panel of approximately 40 human kinases; assay: Single point human kinase panel screening; format: biochemical; settings: 10 µM
Method: as §1

[6] = system: CaCo2 cell; assay: CaCo2 cell flux assay; format: in vitro ADME; settings: data not shown
[7] = system: human fetal lung fibroblast MRC-5 cell line; assay: Cytotoxicity against MRC-5 cell line, resazurin; format: cell-based; settings: ratio of EC50s
Method: as §1

T2 sequence (P49841 whole entry): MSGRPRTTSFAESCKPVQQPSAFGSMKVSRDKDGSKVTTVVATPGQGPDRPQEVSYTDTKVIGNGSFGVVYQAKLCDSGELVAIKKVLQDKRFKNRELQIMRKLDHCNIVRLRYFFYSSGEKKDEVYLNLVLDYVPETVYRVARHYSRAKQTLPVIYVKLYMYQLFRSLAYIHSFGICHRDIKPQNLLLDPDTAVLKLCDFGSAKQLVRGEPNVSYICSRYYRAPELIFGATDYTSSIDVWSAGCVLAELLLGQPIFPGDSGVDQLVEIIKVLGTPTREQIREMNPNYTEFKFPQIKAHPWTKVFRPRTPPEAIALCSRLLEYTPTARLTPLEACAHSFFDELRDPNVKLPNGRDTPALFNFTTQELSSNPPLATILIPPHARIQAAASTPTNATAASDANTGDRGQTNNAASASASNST

Compound	EC50 at 72 h [1] [nM]	IC50 [2] [nM]	IC50 [3] [nM]	EC50 [4] [nM]	human kinase panel specificity (in words) [5]	number of other kinases with >50% inhibition [5]	cell permeability in CaCo2 cell flux assay [6]	selectivity window between T. brucei activity and activity on MRC5 cells [7] [fold]
CCCC1=C(C#N)C(c2cccc3nonc23)c2cn[nH]c2N1 (centres unmarked) [CE-309608]	16000	21	46	2690				
CS(=O)(=O)c1ccc(S(=O)(=O)Nc2ccc3c(Cl)c(C(=O)N4CCc5ccccc5C4)sc3c2)cc1 [AG-02449]	620	69		130				
O=C1NCCc2[nH]c(-c3ccnc(Nc4ccc(-n5cccn5)cc4)c3)cc21 [PF-04903528]	1130	32	236	1130				
CNCc1cncc(-c2ccc3[nH]nc(-c4nc5ccccc5[nH]4)c3c2)c1C [AG-024290]	130	62	173	130				
CN(C)C[C@@H](NC(=O)c1ccc2[nH]nc(-c3nc4ccccc4[nH]3)c2c1)c1ccccc1 [PF-00744923]	130	70	< 1000	130				
Cc1cc2nc(N3CCc4nc[nH]c(=O)c4C3)nc(Nc3cc(C4CC4)[nH]n3)c2s1 [PF-00956933]	2170	57	< 1000	130				
O=c1ccc2cnc(Nc3ccc(N4CCC(CCCO)CC4)cc3)nc2n1C1CCCC1 [compound 0181276]		600	4290		relatively specific against the wider human kinase panel			
CNC(=O)[C@@H]1CCCN1c1nc(Cc2cccc(C#N)c2)cc(Nc2cc(C3CC3)[nH]n2)n1 [PF-02368935]	130	19	< 1000	130				
CCC(C(=O)Nc1cc([C@H]2C[C@@H](OC(=O)NCc3ccccn3)C2)[nH]n1)c1ccccc1 (some centres unmarked) [PF-00305135]	930	67	3	2450				
O=C(NCc1ccccc1)O[C@H]1C[C@@H](c2cc(NC(=O)C3CCCCC3)n[nH]2)C1 [PF-04279731]	1470	62	1	1230		2		
CCc1nn(CCC(=O)Nc2cc([C@H]3C[C@@H](NC(C)=O)C3)[nH]n2)c2ccccc12 [CE-160042]		142	32	> 25000	highly specific and only inhibited HsGSK-3 beta; also recorded: no significant inhibition of any other kinases		no detectable cell permeability	
CC(C)C(=O)Nc1cc([C@H]2C[C@@H](OC(=O)NCc3cccc(C(F)(F)F)c3F)C2)[nH]n1 [CE-325011]	2320	94	5	1050				
O=C(NC1CCN(C(=O)Cc2ccccc2)C1)c1ccc2[nH]nc(-c3nc4ccccc4[nH]3)c2c1 (centres unmarked) [CE-317112]	39400	99	3	1140				35
O=c1ccc2cnc(Nc3ccccc3)nc2n1C1CC2CCC1C2 (centres unmarked) [compound 0180532]		7270	60			4		
CC(C)C(=O)Nc1cc([C@H]2C[C@@H](OC(=O)NCc3ccccc3Cl)C2)[nH]n1 [CE-324998]	1220	93	1	230				
Cc1cc(Nc2cc[nH]n2)nc(N(C)CCc2ccncc2)n1 [PF-01242377]	1180	61	132	130				
CC(C)C(=O)Nc1cc([C@H]2C[C@@H](OC(=O)N(C)Cc3ccccc3)C2)[nH]n1 [CE-325692]	4670	65	2	640				
